Measured values taken from PubChem BioAssay (NCI).
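All cell lines were grown in 96-well plates and treated with compound for 48 hours. At the TGI there is no net growth.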

Legend:
Test in all cases: NCI-60 cell line screen, 48 h
[1] = test system: SR leukemia
[2] = test system: COLO 205 colon
[3] = test system: NCI/ADR-RES ovarian
[4] = test system: HOP-62 NSCLC
[5] = test system: MOLT-4 leukemia
[6] = test system: K-562 leukemia
[7] = test system: MDA-MB-435
[8] = test system: PC-3 prostate
[9] = test system: IGROV1 ovarian
[10] = test system: OVCAR-5 ovarian
[11] = test system: DU-145 prostate
[12] = test system: OVCAR-3 ovarian
[13] = test system: MDA-N
[14] = test system: HL-60(TB) leukemia
[15] = test system: NCI-H522 lung
[16] = test system: NCI-H460 lung
[17] = test system: UACC-62 melanoma
[18] = test system: U251 CNS
[19] = test system: OVCAR-8 ovarian
[20] = test system: T-47D breast
[21] = test system: UACC-257 melanoma
[22] = test system: KM12 colon
[23] = test system: MDA-MB-231 breast
[24] = test system: HS 578T breast
[25] = test system: SF-268 CNS
[26] = test system: RXF 393 renal
[27] = test system: M14 melanoma
[28] = test system: A549 NSCLC
[29] = test system: SF-295 CNS
[30] = test system: SK-MEL-28 melanoma
[31] = test system: NCI-H23 lung
[32] = test system: TK-10 renal
[33] = test system: CCRF-CEM leukemia
[34] = test system: MCF7 breast
[35] = test system: SNB-19 CNS
[36] = test system: LOX IMVI melanoma
[37] = test system: SNB-75 CNS
[38] = test system: BT-549 breast
[39] = test system: A498 renal
[40] = test system: HCT-116 colon
[41] = test system: SN12C renal
[42] = test system: 786-0 renal
[43] = test system: UO-31 renal
[44] = test system: SK-MEL-5 melanoma
[45] = test system: OVCAR-4 ovarian
[46] = test system: EKVX NSCLC
[47] = test system: SF-539 CNS
[48] = test system: SW-620 colon
[49] = test system: HT29 colon
[50] = test system: RPMI-8226 leukemia
[51] = test system: ACHN renal
[52] = test system: HCT-15 colon
[53] = test system: NCI-H226 lung
[54] = test system: HCC-2998 colon
[55] = test system: CAKI-1 renal
[56] = test system: MALME-3M melanoma
[57] = test system: SK-MEL-2 melanoma
[58] = test system: SK-OV-3 ovarian

What does the source list for `COc1c2ccoc2c(OC)c2oc(=O)ccc12`?
TGI [1]: > 100 µM; TGI [2]: > 100 µM; TGI [3]: > 100 µM; TGI [4]: > 100 µM; TGI [5]: > 100 µM; TGI [6]: > 100 µM; TGI [7]: > 100 µM; TGI [8]: > 100 µM; TGI [9]: > 100 µM; TGI [10]: > 100 µM; TGI [11]: > 100 µM; TGI [12]: > 100 µM; TGI [13]: > 100 µM; TGI [14]: > 100 µM; TGI [15]: > 100 µM; TGI [16]: > 100 µM; TGI [17]: > 100 µM; TGI [18]: > 100 µM; TGI [19]: > 100 µM; TGI [20]: > 100 µM; TGI [21]: > 100 µM; TGI [22]: > 100 µM; TGI [23]: > 100 µM; TGI [24]: > 100 µM; TGI [25]: > 100 µM; TGI [26]: > 100 µM; TGI [27]: > 100 µM; TGI [28]: > 100 µM; TGI [29]: > 100 µM; TGI [30]: > 100 µM; TGI [31]: > 100 µM; TGI [32]: > 100 µM; TGI [33]: > 100 µM; TGI [34]: > 100 µM; TGI [35]: > 100 µM; TGI [36]: > 100 µM; TGI [37]: 63.6 µM; TGI [38]: > 100 µM; TGI [39]: > 100 µM; TGI [40]: > 100 µM; TGI [41]: > 100 µM; TGI [42]: > 100 µM; TGI [43]: > 100 µM; TGI [44]: > 100 µM; TGI [45]: > 100 µM; TGI [46]: > 100 µM; TGI [47]: > 100 µM; TGI [48]: > 100 µM; TGI [49]: > 100 µM; TGI [50]: > 100 µM; TGI [51]: > 100 µM; TGI [52]: > 100 µM; TGI [53]: > 100 µM; TGI [54]: > 100 µM; TGI [55]: > 100 µM

Which TGI [1] does the source give for `C/C(CC(O)(/C=N/O)c1ccccc1)=N/O` (stereo unspecified) here?
Its TGI is > 100 µM.

What about the TGI [3] of the same compound?
Its TGI is > 100 µM.

What about the TGI [4] of the same compound?
Its TGI is > 100 µM.

And the TGI [5]?
The TGI was > 100 µM.

What about the TGI [6] of the same compound?
Its TGI is > 100 µM.

And the TGI [7]?
Its TGI is > 100 µM.

What about the TGI [8] of the same compound?
The TGI was > 100 µM.

And the TGI [9]?
Its TGI is > 100 µM.

What about the TGI [10] of the same compound?
Its TGI is > 100 µM.

And the TGI [12]?
The TGI was > 100 µM.

What about the TGI [13] of the same compound?
Its TGI is > 100 µM.

What about the TGI [56] of the same compound?
The TGI was > 100 µM.

And the TGI [57]?
Its TGI is > 100 µM.

And the TGI [15]?
Its TGI is > 100 µM.

And the TGI [16]?
Its TGI is > 100 µM.

And the TGI [18]?
The TGI was > 100 µM.

And the TGI [19]?
Its TGI is > 100 µM.

And the TGI [20]?
Its TGI is > 100 µM.

And the TGI [21]?
The TGI was > 100 µM.

And the TGI [22]?
Its TGI is > 100 µM.

What about the TGI [23] of the same compound?
Its TGI is > 100 µM.

And the TGI [24]?
Its TGI is > 100 µM.

And the TGI [25]?
Its TGI is > 100 µM.

And the TGI [27]?
The TGI was > 100 µM.

And the TGI [28]?
Its TGI is > 100 µM.

What about the TGI [29] of the same compound?
Its TGI is > 100 µM.

What about the TGI [30] of the same compound?
Its TGI is > 100 µM.

What about the TGI [58] of the same compound?
Its TGI is > 100 µM.

What about the TGI [31] of the same compound?
Its TGI is > 100 µM.

And the TGI [32]?
Its TGI is > 100 µM.

And the TGI [33]?
Its TGI is > 100 µM.

What about the TGI [34] of the same compound?
Its TGI is > 100 µM.

What about the TGI [35] of the same compound?
The TGI was > 100 µM.

What about the TGI [36] of the same compound?
Its TGI is > 100 µM.

And the TGI [38]?
The TGI was > 100 µM.

And the TGI [40]?
Its TGI is > 100 µM.

And the TGI [41]?
Its TGI is > 100 µM.

What about the TGI [42] of the same compound?
Its TGI is > 100 µM.

What about the TGI [43] of the same compound?
Its TGI is > 100 µM.

What about the TGI [44] of the same compound?
Its TGI is > 100 µM.

And the TGI [45]?
Its TGI is > 100 µM.

And the TGI [46]?
The TGI was > 100 µM.

And the TGI [47]?
Its TGI is > 100 µM.

What about the TGI [48] of the same compound?
Its TGI is > 100 µM.

And the TGI [49]?
Its TGI is > 100 µM.

And the TGI [50]?
Its TGI is > 100 µM.

What about the TGI [51] of the same compound?
Its TGI is > 100 µM.

What about the TGI [52] of the same compound?
The TGI was > 100 µM.

And the TGI [53]?
Its TGI is > 100 µM.

And the TGI [54]?
The TGI was > 100 µM.

What about the TGI [55] of the same compound?
The TGI was > 100 µM.
